One may read the pKi as the negative decadic logarithm of the Ki, by convention in mol/L. A lower pKi goes with a high Ki. In general, pEC50 refers to −log10 of the EC50, conventionally taken in molar units. The low end stands for a large EC50, the high end for a small EC50.

The target in one experiment is human H3R (Homo sapiens (Human), UniProt Q9Y5N1). The experiment can be described thus: GTPγS functional assay, membranes from HEK cells expressing the human H3R. The class given is biochemical. Conditions: for Emax: 5 min, [35S]GTPγS bound as percentage of basal, read-out: Human Maximum (%); for pEC50: GTPγS agonist potency. The procedure: (§1) Membranes from HEK cells expressing the human H3R, or from C6 cells expressing the rat H3R, were prepared by homogenization in cold buffer containing 50 mM Tris-HCl (pH 7.4), 5 mM EDTA, 10 mM MgCl2, 1 mM benzamidine, 2 μg/ml aprotinin, 1 μg/ml leupeptin, and 1 μg/ml pepstatin. The homogenate was centrifuged at 40,000 g for 20 min at 4° C., and the resulting pellet was resuspended in 50 mM Tris-HCl (pH 7.4), 5 mM EDTA, and 10 mM MgCl2 and homogenized. Glycerol and bovine serum albumin were added to a final concentration of 10% glycerol and 1% bovine serum albumin. Membranes were diluted in GTPγS assay buffer (25 mM HEPES, 2.5 mM MgCl2, and 75 mM NaCl, pH 7.4) and 10 μg of membrane protein was incubated in a 96-well deep-well block in the presence of 5.0 μM unlabeled GDP, approximately 0.5 nM of [^35S]GTPγS, and increasing concentrations of test compounds. Samples were incubated at 37° C. for 5 min and the assays were terminated by the addition of cold buffer (50 mM Tris-HCl, 75 mM NaCl, and 2.5 mM MgCl2, pH 7.6) and subsequent harvesting onto a Packard Unifilter 96-well GF/B plate followed by extensive washing. Microscint 20 (PerkinElmer Life Sciences) was added to the samples, and bound [^35S]GTPγS was determined using the Topcount (Perkin Elmer Life Sciences). The percentage of [^35S]GTPγS bound in each sample was calculated as a percentage of that bound to control samples incubated in the absence of the H3R agonists (basal). Data were analyzed from experiments performed in triplicate using GraphPad Prism to obtain pEC50 values, Hill slopes, and maximal % response.
Chain of human H3R (Q9Y5N1 whole entry): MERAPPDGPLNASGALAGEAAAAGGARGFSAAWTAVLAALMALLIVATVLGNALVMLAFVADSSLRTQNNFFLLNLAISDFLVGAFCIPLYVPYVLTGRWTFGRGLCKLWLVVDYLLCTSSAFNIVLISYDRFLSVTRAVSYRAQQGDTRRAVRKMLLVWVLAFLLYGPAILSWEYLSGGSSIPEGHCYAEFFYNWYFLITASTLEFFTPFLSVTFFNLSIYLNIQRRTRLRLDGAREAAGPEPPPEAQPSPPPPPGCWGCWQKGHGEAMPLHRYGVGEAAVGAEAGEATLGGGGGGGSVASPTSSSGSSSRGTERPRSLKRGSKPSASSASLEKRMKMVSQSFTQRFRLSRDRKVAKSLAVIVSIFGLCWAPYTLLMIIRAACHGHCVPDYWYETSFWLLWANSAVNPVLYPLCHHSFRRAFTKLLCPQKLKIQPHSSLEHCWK
(GTPγS resists hydrolysis and so accumulates on activated G proteins.)

The target of another experiment is rat H3R (Rattus norvegicus (Rat), UniProt Q9QYN8). The experiment is described as follows: GTPγS functional assay, membranes from C6 cells expressing the rat H3R. The class given is biochemical. The following applies: for Emax: 5 min, read-out: Rat Maximum (%); for pEC50: GTPγS agonist potency. The procedure: as §1
Chain of rat H3R (Q9QYN8 whole entry): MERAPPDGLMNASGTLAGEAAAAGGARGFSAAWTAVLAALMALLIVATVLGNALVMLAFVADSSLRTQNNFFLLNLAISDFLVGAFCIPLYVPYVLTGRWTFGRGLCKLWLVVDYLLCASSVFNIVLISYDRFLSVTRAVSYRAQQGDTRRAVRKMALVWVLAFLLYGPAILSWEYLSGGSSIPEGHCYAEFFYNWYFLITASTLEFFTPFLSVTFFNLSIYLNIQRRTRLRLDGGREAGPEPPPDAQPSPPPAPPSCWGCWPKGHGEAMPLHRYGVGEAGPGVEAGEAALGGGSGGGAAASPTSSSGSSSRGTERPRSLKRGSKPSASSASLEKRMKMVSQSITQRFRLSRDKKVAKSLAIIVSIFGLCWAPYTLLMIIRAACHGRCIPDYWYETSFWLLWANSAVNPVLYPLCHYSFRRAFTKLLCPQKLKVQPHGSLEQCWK
Experiment [1] addresses T1, human histamine H3 receptor (Homo sapiens (Human), UniProt Q9Y5N1). The experiment can be described thus: Radioligand competition binding assay, human H3 receptor. Conditions: [3H]-N-α-methylhistamine competition binding.
For experiment [2], the target named is rat histamine H3 receptor (Rattus norvegicus (Rat), UniProt Q9QYN8). The experiment is described as follows: Radioligand competition binding assay, rat H3 receptor. The following applies: [3H]-N-α-methylhistamine competition binding. The procedure: To determine the effectiveness of representative compounds of this invention as histamine-3 receptor ligands (H3 receptor ligands), the following tests were conducted according to previously described methods (see European Journal of Pharmacology 1990, 188, 219-227; Journal of Pharmacology and Experimental Therapeutics 1995, 275, 598-604; Journal of Pharmacology and Experimental Therapeutics 1996, 276, 1009-1015; and Biochemical Pharmacology 1973, 22, 3099-3108).
Chain of rat histamine H3 receptor (Q9QYN8 whole entry): as above
The rat H3 receptor was cloned and expressed in cells, and competition binding assays carried out, according to methods previously described (see Esbenshade, et al. Journal of Pharmacology and Experimental Therapeutics 2005, 313, 165-175; Esbenshade et al., Biochemical Pharmacology 2004, 68, 933-945; and Krueger, et al. Journal of Pharmacology and Experimental Therapeutics 2005, 314, 271-281). Membranes were prepared from C6 or HEK293 cells, expressing the rat histamine H3 receptor, by homogenization on ice in TE buffer (50 mM Tris-HCl buffer, pH 7.4, containing 5 mM EDTA), 1 mM benzamidine, 2 μg/ml aprotinin, 1 μg/ml leupeptin, and 1 μg/ml pepstatin. The homogenate was centrifuged at 40,000 g for 20 minutes at 4° C. This step was repeated, and the resulting pellet was resuspended in TE buffer. Aliquots were frozen at −70° C. until needed. On the day of assay, membranes were thawed and diluted with TE buffer.
Membrane preparations were incubated with [^3H]-N-α-methylhistamine (0.5-1.0 nM) in the presence or absence of increasing concentrations of ligands for H3 receptor competition binding. The binding incubations were conducted in a final volume of 0.5 ml TE buffer at 25° C. and were terminated after 30 minutes. Thioperamide (30 μM) was used to define non-specific binding. All binding reactions were terminated by filtration under vacuum onto polyethylenimine (0.3%) presoaked Unifilters (Perkin Elmer Life Sciences) or Whatman GF/B filters followed by three brief washes with 2 ml of ice-cold TE buffer. Bound radiolabel was determined by liquid scintillation counting. For all of the radioligand competition binding assays, IC50 values and Hill slopes were determined by Hill transformation of the data and pKi values were determined by the Cheng-Prusoff equation.

Experiment [3] concerns the target T1, human histamine H3 receptor. The experiment is described as follows: FLIPR functional assay (Ca2+, HEK-293 cells coexpressing Gαqi5), human H3 receptor. The class given is cell-based. The following applies: for pEC50: FLIPR agonist potency; for Emax: HEK293, FLIPR, percentage of the response to 1 μM RAMH, read-out: Human Maximum (%). From the text:
There are many methods available to show the effectiveness of compounds as histamine H3 receptor ligands. Histamine H3 receptors from mammalian species have been cloned. Methods to clone, express, and assess the potency and functional activity of such cloned genes are well known to those skilled in the art of molecular biology. […] In the present case, to determine the potency and effectiveness of representative compounds of this invention as histamine-H3 receptor ligands (H3 receptor ligands), the following tests were conducted according to previously described methods (see Esbenshade, et al., Journal of Pharmacology and Experimental Therapeutics 2003, 305, 887-896, Esbenshade, et al., Biochemical Pharmacology 2004, 68, 933-945, and in Krueger, et al., Journal of Pharmacology and Experimental Therapeutics 2005, 314, 271-281): histamine H3 receptors were cloned and stably expressed in HEK-293 (human embryonic kidney) cells coexpressing a Gαqi5. Before testing, cells were loaded with a Ca^+2 sensitive fluorescent dye, in this case Fluo-4. For partial agonist or full agonist ligands, addition of compound to the cells led to an increase in intracellular Ca^+2 which was detected by FLIPR (Fluorescence Imaging Plate Reader; Molecular Devices, Sunnyvale, Calif.) technology. The fluorescence intensities measured before addition of the test compound were subtracted from the fluorescence intensities at later time points. Peak response values determined at each concentration of ligand were expressed as a percentage of the response obtained with a maximal concentration (1 μM) of the full agonist R-α-methyl-histamine (RAMH). Concentration versus response data were analyzed to obtain compound potency as EC50 values for full and partial agonists.

Where [4] appears, read: [35S]GTPγS bound as percentage of basal.

pEC50, pKi: −log10 of the molar value. Counter-ions that a name gives are not always drawn.

T1 sequence (Q9Y5N1 whole entry): as the sequence (Q9Y5N1 whole entry) above

Turning to `C[C@@H](N)Cc1c[nH]cn1` [R-α-methyl-histamine (RAMH), R-α-methyl-histamine, reference compound], the Emax stood at 240% at human H3R and 224% at rat H3R (setting [4]).

As for `Nc1nccc(NC2CCNCC2)n1` [Example 24, N^4-(piperidin-4-yl)pyrimidine-2,4-diamine dihydrochloride], the pKi in experiment [1] was 6.49; in experiment [2] it was 6.98.

Consider `CN(C)CCCN(C)c1ccnc(N)n1.O=C(O)C(O)C(O)C(=O)O` [Example 9, N^4-(3-(dimethylamino)propyl)-N^4-methylpyrimidine-2,4-diamine(2R,3R)-2,3-dihydroxysuccinate], for which the pKi in experiment [1] is 6.74; in experiment [2], less than 6.51. On rat H3R, this compound had a pEC50 of 5.71. Besides, the “Rat Maximum (%)” value on rat H3R (setting [4]) is 110%.

Regarding `Nc1nccc(N2CCNCC2)n1` [Example 25, 4-(piperazin-1-yl)pyrimidin-2-amine dihydrochloride], the figures for the pKi in experiment [1] and in experiment [2] were 7.62 and 8.24, respectively. Further, the Emax amounted to 150% on human H3R and 141% on rat H3R (setting [4]). Besides, the negative-log EC50 (pEC50) was 6.88 on human H3R and 7.52 at rat H3R.

For the compound `CN(CCCN)c1ccnc(N)n1` [Example 8, N^4-(3-aminopropyl)-N^4-methylpyrimidine-2,4-diamine dihydrochloride], the negative-log Ki (pKi) is 6.50 in experiment [1] and 6.71 in experiment [2].

Take `CN(C)CCN(C)c1ccnc(N)n1` [Example 3, N^4-(2-(dimethylamino)ethyl)-N^4-methylpyrimidine-2,4-diamine dihydrochloride]: the pKi was 6.59 in experiment [1] and less than 6.51 in experiment [2].

In experiment [1], `CC(C)(C)OC(=O)N1CCN(c2ccnc(N)n2)CC1` [Example 14, tert-butyl 4-(2-aminopyrimidin-4-yl)piperazine-1-carboxylate] had a pKi of less than 6.42. Further, the negative-log Ki (pKi) in experiment [2] is less than 6.45. Moreover, in experiment [3], the negative-log EC50 (pEC50) was 6.50 and the Emax amounted to 67.6%.

With `CC(C)(C)OC(=O)N1CCC(CNc2ccnc(N)n2)CC1` [Example 15, tert-butyl 4-((2-aminopyrimidin-4-ylamino)methyl)piperidine-1-carboxylate], the values for the negative-log Ki (pKi) in experiment [1] and in experiment [2] were less than 6.45 and less than 6.48, respectively. Moreover, the pEC50 in experiment [3] was 7.36; on human H3R, 5.32; on rat H3R, 5.13. The Emax in experiment [3] was 39%; at human H3R, 117%; on rat H3R (setting [4]), 138%.

As for `CN1CCN(c2ccnc(N)n2)CC1` [Example 13, 4-(4-methylpiperazin-1-yl)pyrimidin-2-amine], the negative logarithm of the Ki (pKi) in experiment [1] is 7.86; in experiment [2] it was 8.13. Further, the Emax on human H3R is 127%; on rat H3R (setting [4]) it was 135%. The figures for the pEC50 at human H3R and at rat H3R were 6.89 and 7.27, respectively.

As to `Nc1nccc(NC2CNC2)n1` [Example 22, N^4-(azetidin-3-yl)pyrimidine-2,4-diamine trihydrochloride], the pKi in experiment [1] was 7.48; in experiment [2] it was 7.01. For the same compound, the Emax is 216% at human H3R and 156% at rat H3R (setting [4]). Besides, the pEC50 at human H3R is 6.34; on rat H3R it was 6.17.

Turning to `CN(C)CCNc1ccnc(N)n1` [Example 2, N^4-(2-(dimethylamino)ethyl)pyrimidine-2,4-diamine 2,2,2-trifluoroacetate], the negative-log Ki (pKi) was 7.27 in experiment [1] and 7.70 in experiment [2]. The negative-log EC50 (pEC50) was 7.07 in experiment [3], 6.28 on human H3R and 6.47 on rat H3R. The figures for the Emax (in experiment [3]; at human H3R; at rat H3R (setting [4])) were 77.7%, 160% and 183%, respectively.

On to `CNCCCNc1ccnc(N)n1` [Example 7, N^4-(3-(methylamino)propyl)pyrimidine-2,4-diamine dihydrochloride], for which the results for the pKi in experiment [1] and in experiment [2] were 7.55 and 7.09, respectively.

In the case of `CC(C)(CN)CNc1ccnc(N)n1` [Example 11, N^4-(3-amino-2,2-dimethylpropyl)pyrimidine-2,4-diamine], the pKi in experiment [1] was less than 6.47. Besides, the pKi in experiment [2] is less than 6.50. Moreover, on human H3R, the Emax came to 111% and the negative-log EC50 (pEC50) is 5.24.

As for `Nc1nccc(N2CCCN(Cc3ccccc3)CCC2)n1` [Example 21, 4-(5-benzyl-1,5-diazocan-1-yl)pyrimidin-2-amine], the pKi was 6.79 in experiment [1] and 7.26 in experiment [2]. For the same compound, the Emax at human H3R is 120%; on rat H3R (setting [4]) it was 135%. Moreover, the negative-log EC50 (pEC50) at human H3R is 6.94; at rat H3R it was 6.67.

In the case of `Nc1nccc(N2C[C@H]3CN(Cc4ccccc4)C[C@H]3C2)n1` [Example 19, 4-((3aR,6aS)-5-benzylhexahydropyrrolo[3,4-c]pyrrol-2(1H)-yl)pyrimidin-2-amine], the figures for the negative logarithm of the Ki (pKi) in experiment [1] and in experiment [2] were 6.80 and 6.77, respectively. The negative-log EC50 (pEC50) in experiment [3] is 5.68; at rat H3R, 6.35. Also, the Emax in experiment [3] was 50.2%; on rat H3R (setting [4]) it was 116%.

`Nc1nccc(NC2CCN(Cc3ccccc3)CC2)n1` [Example 12, N^4-(1-benzylpiperidin-4-yl)pyrimidine-2,4-diamine 2,2,2-trifluoroacetate]: the negative-log Ki (pKi) is 7.14 in experiment [1] and 7.61 in experiment [2]. Besides, the Emax amounted to 139% on human H3R and 136% on rat H3R (setting [4]). Besides, the pEC50 is 6.06 on human H3R and 6.49 at rat H3R.

Turning to `Nc1nccc(N2CCC3(CC2)CNC3)n1` [Example 23, 4-(2,7-diazaspiro[3.5]nonan-7-yl)pyrimidin-2-amine trihydrochloride], the pKi in experiment [1] is 7.17; in experiment [2], 7.91. The Emax worked out at 147% at human H3R and 126% at rat H3R (setting [4]). In addition, the pEC50 at human H3R was 6.29; at rat H3R, 6.96.

Source of the values: US8796297B2, “4-substituted-2-amino-pyrimidine derivatives” (AbbVie Inc., priority 2009, dated 2014).
